Holding throughout (format): in vivo
Assay [1] has as its system APOE*3Leiden transgenic mice. Briefly: Plasma lipoprotein distribution pattern by fplc in pooled samples. Particulars: separate experiment, 1.0% (w/w) in diet. The text has this: The phytosphingosine, ceramide IV and cerebroside (=glucosyl ceramide) were obtained from Cosmoferm BV (Delft, The Netherlands). Sphingomyelin from egg was obtained from Larodan Fine Chemicals AB (Stockholm, Sweden) and sphingosine and sphinganine were obtained from Avanti Polar Lipids Inc, (Alabaster, Ala., USA). During the experiment, body weight and food intake were monitored. At three weeks after the dietary change, blood was taken to determine plasma cholesterol and triglyceride levels. Also, the plasma lipoprotein pattern was determined group wise in pooled samples by fplc. Then, the concentration of the additives was changed to 0.2%, and feeding continued for another 3 weeks. At three weeks after this dietary change, blood was again taken to determine plasma cholesterol and triglyceride levels, and the plasma lipoprotein pattern was determined group wise in pooled samples by fplc. The dietary additives were then changed to 0.4% (w/w), and the same cycle of feeding and blood sampling was executed. […] In a separate experiment, groups of six APOE*3Leiden mice were fed the above-described Western-type diet, containing 1.0% (w/w) of phytosphingosine. At the end of the treatment period, plasma cholesterol was reduced with 58% (p=0.007) and plasma triglyceride was reduced with 64% (p=0.01) with respect to the control group.

Assay [2] has as its system APOE*3Leiden transgenic mice. Briefly: Plasma cholesterol in APOE*3Leiden transgenic mice fed a Western-type diet with sphingolipid. The text has this:
(§1) In this experiment mice were used in which the human gene for the so-called Leiden mutation of apolipoprotein E3 (APOE*3Leiden transgenic mice) had been incorporated by transgenesis. Because of this transgenic change, these so-called APOE*3Leiden mice have a humanized lipoprotein profile, and are extremely suitable for studying the effect of compounds on lipoprotein metabolism (Van Vlijmen et. al. 1996. J Clin Invest. 97:1184-1192; Van Vlijmen et. al. 1998. Arzneimittelforschung 1998; 48:396-402.).
(§2) The study design was as follows: female mice were fed for 5 weeks “Western-type” diet (Nishina et al. 1990. J Lipid Res. 31:859-869) containing 0.25% (w/w) cholesterol. Specifically, the diet contained 15% (all w/w) cocoabutter, 0.25% cholesterol, 1% corn oil, 40.5% sucrose, 20% acid casein, 10% corn starch and 5.95% cellulose, as major ingredients. This diet increased their plasma cholesterol level to about 15 mmol/L. Subsequently, the mice were randomized, on the basis of their plasma cholesterol level, into groups of six mice each. These groups were given the same diet, but containing in addition: • Group 1 no addition • Group 2 0.1% (w/w) phytosphingosine • Group 3 0.1% (w/w) sphingosine • Group 4 0.1% (w/w) sphinganine • Group 5 0.1% (w/w) cerebroside • Group 6 0.1% (w/w) ceramide IV • Group 7 0.1% (w/w) sphingomyelin
(§3) The phytosphingosine, ceramide IV and cerebroside (=glucosyl ceramide) were obtained from Cosmoferm BV (Delft, The Netherlands). Sphingomyelin from egg was obtained from Larodan Fine Chemicals AB (Stockholm, Sweden) and sphingosine and sphinganine were obtained from Avanti Polar Lipids Inc, (Alabaster, Ala., USA). During the experiment, body weight and food intake were monitored. At three weeks after the dietary change, blood was taken to determine plasma cholesterol and triglyceride levels. Also, the plasma lipoprotein pattern was determined group wise in pooled samples by fplc. Then, the concentration of the additives was changed to 0.2%, and feeding continued for another 3 weeks. At three weeks after this dietary change, blood was again taken to determine plasma cholesterol and triglyceride levels, and the plasma lipoprotein pattern was determined group wise in pooled samples by fplc. The dietary additives were then changed to 0.4% (w/w), and the same cycle of feeding and blood sampling was executed.
(§4) In a separate experiment, groups of six APOE*3Leiden mice were fed the above-described Western-type diet, containing 1.0% (w/w) of phytosphingosine. At the end of the treatment period, plasma cholesterol was reduced with 58% (p=0.007) and plasma triglyceride was reduced with 64% (p=0.01) with respect to the control group.

Assay [3] has as its system APOE*3Leiden transgenic mice. Briefly: Plasma triglycerides in APOE*3Leiden transgenic mice fed a Western-type diet with sphingolipid.
Description: as §1, §2, §3, §4

The mark [4] stands for this setting: t = 0, baseline after 5 weeks Western-type diet, before addition of sphingolipid, female mice, group mean.
Where [5] appears, read: t = 3 (weeks), 0.1% (w/w) in diet.
[6] abbreviates: t = 6 (weeks), 0.2% in diet for the last 3 weeks.
Setting [7] is: t = 9 (weeks), 0.4% (w/w) in diet for the last 3 weeks.

Six compounds from US7968529B2, “Use of sphingolipids for reducing high plasma cholesterol and high triacylglycerol levels” (Nederlandse Organisatie Voor …, priority 2003, dated 2011) can be followed below.

Consider `CCCCCCCCCCCCCC[C@@H](O)[C@@H](O)[C@@H](N)CO` [PHYTOSPHINGOSINE, phytosphingosine], for which the “lipoprotein fractions accounting for the decrease of cholesterol and triglycerides (fplc)” value in assay [1] was “fully due to a decrease in VLDL and IDL/LDL fractions”. Also, in assay [2] (separate experiment, 1.0% (w/w) in Western-type diet, end of treatment period, p=0.007), the “plasma cholesterol reduced with respect to the control group” value was found to be 58%. In addition, the Plasma cholesterol levels is listed as 14.4 mmol/L in assay [2] (setting [4]), 13.2 mmol/L in assay [2] (setting [5]), 12.6 mmol/L in assay [2] (setting [6]) and 10.9 mmol/L in assay [2] (setting [7]). The “Plasma cholesterol reduction relative to control” value in assay [2] (t = 3 (weeks), 0.1% in diet) came to 11.6%; in assay [2] (t = 6 (weeks), 0.2% in diet), 19.7%; in assay [2] (t = 9 (weeks), 0.4% in diet), 34.8%. The “plasma triglyceride reduced with respect to the control group” value in assay [3] (separate experiment, 1.0% (w/w) in Western-type diet, end of treatment period, p=0.01) was 64%. Moreover, the Plasma triglyceride levels in assay [3] (setting [4]) was found to be 2.1 mmol/L; in assay [3] (setting [5]), 1.7 mmol/L; in assay [3] (setting [6]), 1.2 mmol/L; in assay [3] (setting [7]), 1.5 mmol/L. Also, the “Plasma triglyceride reduction relative to control” value in assay [3] (t = 3 (weeks), 0.1% in diet) turned out to be 22.9%; in assay [3] (t = 6 (weeks), 0.2% in diet), 39.8%; in assay [3] (t = 9 (weeks), 0.4% in diet), 34.8%.

For the compound ceramide IV, the Plasma cholesterol levels came to 15.6 mmol/L in assay [2] (setting [4]), 14.8 mmol/L in assay [2] (setting [5]), 12.6 mmol/L in assay [2] (setting [6]) and 11.7 mmol/L in assay [2] (setting [7]). Moreover, the “Plasma cholesterol reduction relative to control” value in assay [2] (t = 3 (weeks), 0.1% in diet) came to 1.5%; in assay [2] (t = 6 (weeks), 0.2% in diet), 19.4%; in assay [2] (t = 9 (weeks), 0.4% in diet), 29.9%. Also, the Plasma triglyceride levels is reported as 2.3 mmol/L in assay [3] (setting [4]), 2.0 mmol/L in assay [3] (setting [5]), 1.1 mmol/L in assay [3] (setting [6]) and 1.4 mmol/L in assay [3] (setting [7]). For the same compound, the “Plasma triglyceride reduction relative to control” value in assay [3] (t = 3 (weeks), 0.1% in diet) is 8.5%; in assay [3] (t = 6 (weeks), 0.2% in diet), 49.1%; in assay [3] (t = 9 (weeks), 0.4% in diet) it was 38.4%.

Turning to `CCCCCCCCCCCCCCC[C@@H](O)[C@@H](N)CO` [SPHINGANINE, sphinganine], the Plasma cholesterol levels in assay [2] (setting [4]) is 15.9 mmol/L; in assay [2] (setting [5]), 14.9 mmol/L; in assay [2] (setting [6]) it was 10.0 mmol/L; in assay [2] (setting [7]) it was 11.5 mmol/L. The “Plasma cholesterol reduction relative to control” value was determined as 0.3% in assay [2] (t = 3 (weeks), 0.1% in diet); 36.2% in assay [2] (t = 6 (weeks), 0.2% in diet); 31.2% in assay [2] (t = 9 (weeks), 0.4% in diet). Besides, the Plasma triglyceride levels in assay [3] (setting [4]) was 2.3 mmol/L; in assay [3] (setting [5]), 1.7 mmol/L; in assay [3] (setting [6]), 1.0 mmol/L; in assay [3] (setting [7]), 1.2 mmol/L. Moreover, the “Plasma triglyceride reduction relative to control” value in assay [3] (t = 3 (weeks), 0.1% in diet) worked out at 19.2%; in assay [3] (t = 6 (weeks), 0.2% in diet), 52.9%; in assay [3] (t = 9 (weeks), 0.4% in diet), 44.9%.

For sphingomyelin, the Plasma cholesterol levels in assay [2] (setting [4]) amounted to 15.1 mmol/L; in assay [2] (setting [5]), 14.7 mmol/L; in assay [2] (setting [6]) it was 9.9 mmol/L; in assay [2] (setting [7]), 8.7 mmol/L. Moreover, the “Plasma cholesterol reduction relative to control” value was found to be 1.9% in assay [2] (t = 3 (weeks), 0.1% in diet); 36.8% in assay [2] (t = 6 (weeks), 0.2% in diet); 48.2% in assay [2] (t = 9 (weeks), 0.4% in diet). The Plasma triglyceride levels stood at 2.5 mmol/L in assay [3] (setting [4]), 1.7 mmol/L in assay [3] (setting [5]), 1.2 mmol/L in assay [3] (setting [6]) and 0.9 mmol/L in assay [3] (setting [7]). The “Plasma triglyceride reduction relative to control” value in assay [3] (t = 3 (weeks), 0.1% in diet) worked out at 19.9%; in assay [3] (t = 6 (weeks), 0.2% in diet), 42.7%; in assay [3] (t = 9 (weeks), 0.4% in diet), 59.5%.

On to glucosyl ceramide [CEREBROSIDE], for which the Plasma cholesterol levels is 14.8 mmol/L in assay [2] (setting [4]), 14.2 mmol/L in assay [2] (setting [5]), 11.7 mmol/L in assay [2] (setting [6]) and 12.8 mmol/L in assay [2] (setting [7]). Moreover, the “Plasma cholesterol reduction relative to control” value was found to be 5.2% in assay [2] (t = 3 (weeks), 0.1% in diet); 25.6% in assay [2] (t = 6 (weeks), 0.2% in diet); 23.4% in assay [2] (t = 9 (weeks), 0.4% in diet). Also, the Plasma triglyceride levels was 2.2 mmol/L in assay [3] (setting [4]), 2.2 mmol/L in assay [3] (setting [5]), 1.2 mmol/L in assay [3] (setting [6]) and 1.8 mmol/L in assay [3] (setting [7]). In addition, the “Plasma triglyceride reduction relative to control” value in assay [3] (t = 3 (weeks), 0.1% in diet) is on record as −1.2%; in assay [3] (t = 6 (weeks), 0.2% in diet), 42.0%; in assay [3] (t = 9 (weeks), 0.4% in diet), 21.9%.

Take `CCCCCCCCCCCCC/C=C/[C@@H](O)[C@@H](N)CO` [SPHINGOSINE, sphingosine]: the Plasma cholesterol levels in assay [2] (setting [4]) was determined as 14.6 mmol/L; in assay [2] (setting [5]), 15.3 mmol/L; in assay [2] (setting [6]) it was 11.0 mmol/L; in assay [2] (setting [7]), 9.5 mmol/L. For the same compound, the “Plasma cholesterol reduction relative to control” value in assay [2] (t = 3 (weeks), 0.1% in diet) is on record as −2.1%; in assay [2] (t = 6 (weeks), 0.2% in diet) it was 29.7%; in assay [2] (t = 9 (weeks), 0.4% in diet), 43.3%. Further, the Plasma triglyceride levels is 2.3 mmol/L in assay [3] (setting [4]), 2.2 mmol/L in assay [3] (setting [5]), 1.4 mmol/L in assay [3] (setting [6]) and 1.0 mmol/L in assay [3] (setting [7]). The “Plasma triglyceride reduction relative to control” value in assay [3] (t = 3 (weeks), 0.1% in diet) is recorded as −0.6%; in assay [3] (t = 6 (weeks), 0.2% in diet), 32.5%; in assay [3] (t = 9 (weeks), 0.4% in diet), 54.3%.
